Data: ChEMBL document CHEMBL1136344, “Green tea catechins as a BACE1 (beta-secretase) inhibitor” (Bioorg Med Chem Lett, 2003)

Legend:
Beta-secretase 1 [1] = target: T1, Beta-secretase 1 (Homo sapiens, UniProt P56817); test: Inhibition of human Beta-secretase 1
Beta-secretase 1 [2] = target: T1, Beta-secretase 1; test: Inhibitory activity against recombinant human Beta-secretase 1

T1 sequence (P56817 whole entry): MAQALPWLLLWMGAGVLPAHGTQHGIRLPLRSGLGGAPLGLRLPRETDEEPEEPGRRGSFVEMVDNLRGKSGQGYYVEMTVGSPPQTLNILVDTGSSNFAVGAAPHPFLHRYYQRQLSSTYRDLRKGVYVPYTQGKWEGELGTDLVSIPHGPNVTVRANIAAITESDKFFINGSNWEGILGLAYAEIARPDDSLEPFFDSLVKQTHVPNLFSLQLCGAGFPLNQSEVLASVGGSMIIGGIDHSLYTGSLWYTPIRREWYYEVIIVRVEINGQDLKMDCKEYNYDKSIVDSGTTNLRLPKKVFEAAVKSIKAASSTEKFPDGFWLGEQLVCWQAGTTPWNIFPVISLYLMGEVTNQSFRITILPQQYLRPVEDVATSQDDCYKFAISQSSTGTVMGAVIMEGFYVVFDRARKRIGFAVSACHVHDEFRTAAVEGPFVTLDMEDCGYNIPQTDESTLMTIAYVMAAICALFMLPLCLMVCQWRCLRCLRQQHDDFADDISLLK

Ki (Beta-secretase 1 [2]) | Compound | IC50 (Beta-secretase 1 [1])
 | O=C(OC[C@@H]1O[C@H](OC(=O)c2cc(O)c(O)c(O)c2)[C@@H](OC(=O)c2cc(O)c(O)c(O)c2)[C@H](OC(=O)c2cc(O)c(O)c(O)c2)[C@H]1OC(=O)c1cc(O)c(O)c(O)c1)c1cc(O)c(O)c(O)c1 | > 160 µM
 | Oc1cc(O)c2c(c1)O[C@@H](c1cc(O)c(O)c(O)c1)[C@@H](O)C2 | 2.4 µM
 | O=C(O[C@@H]1O[C@@H]2COC(=O)c3cc(O)c(O)c(O)c3-c3c(cc(O)c(O)c3O)C(=O)OO[C@H]([C@H]1O)[C@@H]2O)c1cc(O)c(O)c(O)c1 | > 160 µM
 | O=C(O[C@@H]1Cc2c(O)cc(O)cc2O[C@H]1c1ccc(O)c(O)c1)c1cc(O)c(O)c(O)c1 [(-)-CATECHINGALLATE] | 6 µM
5.3 µM | O=C(O[C@H]1Cc2c(O)cc(O)cc2O[C@H]1c1ccc(O)c(O)c1)c1cc(O)c(O)c(O)c1 | 4.5 µM
 | Oc1cc(O)c2c(c1)O[C@H](c1cc(O)c(O)c(O)c1)[C@@H](O)C2 [GALLOCATECHIN] | 2.5 µM
